Source: PubChem BioAssay AID256 (DTP/NCI, 2004)
Values joined by “and” are separate entries in the source; they are usually repeats but may differ in a detail not shown here. Equal values may be shown once. Toxic doses and inconclusive results are not listed. Rule for the calls: active = survival T/C of 150% or more; inactive = T/C below 125% in these data.

Test system: CD2F1 mice, L1210 leukemia ip, survival T/C
Assay: NCI In Vivo Anticancer Drug Screen. Data for tumor model L1210 Leukemia (intraperitoneal) in CD2F1 (CDF1) mice
Settings: higher = longer survival
Summary of the method: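 Mice carrying a transplanted tumor received test compound or vehicle alone. The value is the measurement in the treated group divided by that in the vehicle-treated control group.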

[1] = endpoint: mean survival time, dose: 100.0 mg/kg/injection, schedule: Q01DX009 (ip), vehicle: saline with Tween-80
[2] = endpoint: mean survival time, dose: 100.0 mg/kg/injection, schedule: Q04DX003 (ip), vehicle: saline with Tween-80
[3] = endpoint: mean survival time, dose: 200.0 mg/kg/injection, schedule: Q01DX009 (ip), vehicle: saline with Tween-80
[4] = endpoint: mean survival time, dose: 200.0 mg/kg/injection, schedule: Q04DX003 (ip), vehicle: saline with Tween-80
[5] = endpoint: mean survival time, dose: 400.0 mg/kg/injection, schedule: Q01DX009 (ip), vehicle: saline with Tween-80
[6] = endpoint: mean survival time, dose: 400.0 mg/kg/injection, schedule: Q04DX003 (ip), vehicle: saline with Tween-80
[7] = endpoint: mean survival time, dose: 100.0 mg/kg/injection, schedule: Q04DX003 (ip), vehicle: saline
[8] = endpoint: mean survival time, dose: 200.0 mg/kg/injection, schedule: Q04DX003 (ip), vehicle: saline
[9] = endpoint: mean survival time, dose: 400.0 mg/kg/injection, schedule: Q04DX003 (ip), vehicle: saline
[10] = endpoint: mean survival time, dose: 100.0 mg/kg/injection, schedule: Q01DX001 (ip), vehicle: saline
[11] = endpoint: mean survival time, dose: 100.0 mg/kg/injection, schedule: Q01DX009 (ip), vehicle: saline
[12] = endpoint: mean survival time, dose: 200.0 mg/kg/injection, schedule: Q01DX001 (ip), vehicle: saline
[13] = endpoint: mean survival time, dose: 200.0 mg/kg/injection, schedule: Q01DX009 (ip), vehicle: saline
[14] = endpoint: mean survival time, dose: 400.0 mg/kg/injection, schedule: Q01DX001 (ip), vehicle: saline
[15] = endpoint: mean survival time, dose: 400.0 mg/kg/injection, schedule: Q01DX009 (ip), vehicle: saline
[16] = endpoint: mean survival time, dose: 25.0 mg/kg/injection, schedule: Q01DX009 (ip), vehicle: saline with Tween-80
[17] = endpoint: mean survival time, dose: 50.0 mg/kg/injection, schedule: Q01DX009 (ip), vehicle: saline with Tween-80

Measured: T/C

Nc1nc2ncc(CSc3ccc(C(=O)NC(CCC(=O)O)C(=O)O)cc3)nc2c(=O)[nH]1 (stereo not given)
inactive: endpoint: mean survival time, dose: 1.0 mg/kg/injection, schedule: Q01DX009 (ip), vehicle: sodium bicarbonate 107 % of control | endpoint: mean survival time, dose: 2.0 mg/kg/injection, schedule: Q01DX009 (ip), vehicle: saline with Tween-80 101 % of control | endpoint: mean survival time, dose: 2.0 mg/kg/injection, schedule: Q01DX009 (ip), vehicle: sodium bicarbonate 111 % of control | endpoint: mean survival time, dose: 4.0 mg/kg/injection, schedule: Q01DX009 (ip), vehicle: saline with Tween-80 101 % of control | endpoint: mean survival time, dose: 4.0 mg/kg/injection, schedule: Q01DX009 (ip), vehicle: sodium bicarbonate 124 % of control | endpoint: mean survival time, dose: 5.4 mg/kg/injection, schedule: Q01DX009 (ip), vehicle: sodium bicarbonate 90 % of control | endpoint: mean survival time, dose: 8.0 mg/kg/injection, schedule: Q01DX009 (ip), vehicle: saline with Tween-80 104 % of control | endpoint: mean survival time, dose: 8.0 mg/kg/injection, schedule: Q01DX009 (ip), vehicle: sodium bicarbonate 97 % of control | endpoint: mean survival time, dose: 12.0 mg/kg/injection, schedule: Q01DX009 (ip), vehicle: sodium bicarbonate 95 % of control | endpoint: mean survival time, dose: 16.0 mg/kg/injection, schedule: Q01DX009 (ip), vehicle: saline with Tween-80 97 % of control | endpoint: mean survival time, dose: 16.0 mg/kg/injection, schedule: Q01DX009 (ip), vehicle: sodium bicarbonate 113 % of control | endpoint: mean survival time, dose: 32.0 mg/kg/injection, schedule: Q01DX009 (ip), vehicle: saline with Tween-80 101 % of control

O=S1(=O)Oc2cccc3cccc1c23
inactive: [1] 95 % of control | [2] 102 % of control | [3] 98 % of control | [4] 102 % of control | [5] 92 % of control | [6] 103 % of control

Cc1cccc[n+]1CCCS(=O)(=O)[O-]
inactive: [7] 104 % of control | [8] 102 % of control | [9] 101 % of control

COCC1OC(COC)C(OC)C1OC (stereo not given)
inactive: endpoint: mean survival time, dose: 100.0 mg/kg/injection, schedule: Q04DX003 (ip), vehicle: acetone 102 % of control | endpoint: mean survival time, dose: 200.0 mg/kg/injection, schedule: Q04DX003 (ip), vehicle: acetone 102 % of control | endpoint: mean survival time, dose: 400.0 mg/kg/injection, schedule: Q04DX003 (ip), vehicle: acetone 94 % of control

ON=c1c2ccccc2oc2ccccc12
inactive: endpoint: mean survival time, dose: 100.0 mg/kg/injection, schedule: Q04DX002 (ip), vehicle: Klucel (hydroxypropylcellulose) (HPC) 92 % of control | endpoint: mean survival time, dose: 200.0 mg/kg/injection, schedule: Q04DX002 (ip), vehicle: Klucel (hydroxypropylcellulose) (HPC) 100 % of control

COc1ccc2ccccc2c1C(=O)CCCc1ccccc1
inactive: endpoint: mean survival time, dose: 12.5 mg/kg/injection, schedule: Q01DX009 (ip), vehicle: water 97 % of control | endpoint: mean survival time, dose: 25.0 mg/kg/injection, schedule: Q01DX009 (ip), vehicle: water 96 % of control | endpoint: mean survival time, dose: 50.0 mg/kg/injection, schedule: Q01DX009 (ip), vehicle: water 97 % of control | endpoint: mean survival time, dose: 100.0 mg/kg/injection, schedule: Q01DX009 (ip), vehicle: water 96 % of control | endpoint: mean survival time, dose: 200.0 mg/kg/injection, schedule: Q01DX009 (ip), vehicle: water 96 % of control

COC(=O)CC(NC(=O)C(F)(F)F)C(=O)OC (stereo not given)
inactive: [10] 108 % of control | [11] 94 % of control | [2] 97 % of control | [12] 104 % of control | [13] 94 % of control | [4] 97 % of control | [14] 98 % of control | [15] 100 % of control | [6] 103 % of control

OC(Cc1ccnc2ccccc12)C(Cl)(Cl)Cl (stereo not given)
inactive: [7] 103 % of control | [8] 103 % of control | [9] 97 % of control

Nc1nc(N)nc(-c2ccncc2)n1
inactive: endpoint: mean survival time, dose: 12.5 mg/kg/injection, schedule: Q01DX009 (ip), vehicle: saline with Tween-80 102 % of control | [16] 106 % of control | [17] 102 % of control

CC(C)C(O)C(C)N (stereo not given)
inactive: [16] 113 % of control | [17] 95 % of control | [1] 93 % of control

COc1ccc(C(=O)c2ccccc2NC(C)=O)cc1
inactive: [1] 98 % of control | [3] 101 % of control | [5] 98 % of control

O=C(CCCN1CCC(C(O)c2ccc(F)cc2)CC1)c1ccc(F)cc1 (stereo not given)
inactive: endpoint: median survival time, dose: 6.25 mg/kg/injection, schedule: Q01DX009 (ip), vehicle: saline with Tween-80 103 % of control and 109 % of control and 112 % of control | endpoint: median survival time, dose: 6.25 mg/kg/injection, schedule: Q06HX014 (oral), vehicle: saline with Tween-80 104 % of control | endpoint: median survival time, dose: 12.5 mg/kg/injection, schedule: Q01DX009 (ip), vehicle: saline with Tween-80 120 % of control and 108 % of control | endpoint: median survival time, dose: 12.5 mg/kg/injection, schedule: Q01DX009 (oral), vehicle: saline with Tween-80 111 % of control | endpoint: median survival time, dose: 12.5 mg/kg/injection, schedule: Q06HX014 (oral), vehicle: saline with Tween-80 105 % of control | endpoint: median survival time, dose: 25.0 mg/kg/injection, schedule: Q01DX009 (ip), vehicle: saline with Tween-80 121 % of control | endpoint: median survival time, dose: 25.0 mg/kg/injection, schedule: Q01DX009 (oral), vehicle: saline with Tween-80 105 % of control | endpoint: median survival time, dose: 25.0 mg/kg/injection, schedule: Q04DX003 (oral), vehicle: saline with Tween-80 102 % of control | endpoint: median survival time, dose: 25.0 mg/kg/injection, schedule: Q06HX014 (oral), vehicle: saline with Tween-80 105 % of control | endpoint: median survival time, dose: 29.7 mg/kg/injection, schedule: Q01DX009 (oral), vehicle: saline with Tween-80 109 % of control | endpoint: median survival time, dose: 44.5 mg/kg/injection, schedule: Q01DX009 (oral), vehicle: saline with Tween-80 111 % of control | endpoint: median survival time, dose: 50.0 mg/kg/injection, schedule: Q01DX009 (ip), vehicle: saline with Tween-80 123 % of control and 124 % of control | endpoint: median survival time, dose: 50.0 mg/kg/injection, schedule: Q01DX009 (oral), vehicle: saline with Tween-80 115 % of control | endpoint: median survival time, dose: 50.0 mg/kg/injection, schedule: Q04DX003 (oral), vehicle: saline with Tween-80 112 % of control | endpoint: median survival time, dose: 50.0 mg/kg/injection, schedule: Q06HX014 (oral), vehicle: saline with Tween-80 113 % of control | endpoint: median survival time, dose: 66.7 mg/kg/injection, schedule: Q01DX009 (oral), vehicle: saline with Tween-80 118 % of control | endpoint: median survival time, dose: 100.0 mg/kg/injection, schedule: Q01DX009 (ip), vehicle: saline with Tween-80 118 % of control | endpoint: median survival time, dose: 100.0 mg/kg/injection, schedule: Q01DX009 (oral), vehicle: saline with Tween-80 118 % of control | endpoint: median survival time, dose: 100.0 mg/kg/injection, schedule: Q04DX003 (oral), vehicle: saline with Tween-80 111 % of control | endpoint: median survival time, dose: 200.0 mg/kg/injection, schedule: Q04DX003 (oral), vehicle: saline with Tween-80 115 % of control

CN1CCC(c2ccccc2)c2ccccc21 (stereo not given)
inactive: endpoint: mean survival time, dose: 50.0 mg/kg/injection, schedule: Q04DX003 (ip), vehicle: other 97 % of control | endpoint: mean survival time, dose: 100.0 mg/kg/injection, schedule: Q04DX003 (ip), vehicle: other 100 % of control | endpoint: mean survival time, dose: 200.0 mg/kg/injection, schedule: Q04DX003 (ip), vehicle: other 100 % of control | endpoint: mean survival time, dose: 400.0 mg/kg/injection, schedule: Q04DX003 (ip), vehicle: other 100 % of control

CC(C)N1CC(COc2cccc3ccccc23)OP1(=O)N(CCCl)CCCl (stereo not given)
inactive: endpoint: mean survival time, dose: 31.25 mg/kg/injection, schedule: Q01DX001 (ip), vehicle: distilled water + Tween-80 101 % of control | endpoint: mean survival time, dose: 62.5 mg/kg/injection, schedule: Q01DX001 (ip), vehicle: distilled water + Tween-80 101 % of control | endpoint: mean survival time, dose: 125.0 mg/kg/injection, schedule: Q01DX001 (ip), vehicle: distilled water + Tween-80 95 % of control and 98 % of control and 101 % of control | endpoint: mean survival time, dose: 250.0 mg/kg/injection, schedule: Q01DX001 (ip), vehicle: distilled water + Tween-80 93 % of control and 103 % of control and 111 % of control | endpoint: mean survival time, dose: 500.0 mg/kg/injection, schedule: Q01DX001 (ip), vehicle: distilled water + Tween-80 90 % of control and 110 % of control | endpoint: mean survival time, dose: 1000.0 mg/kg/injection, schedule: Q01DX001 (ip), vehicle: distilled water + Tween-80 113 % of control and 93 % of control

O=C(O)c1cc(-c2ccc(Cl)c(Cl)c2)nc2c(Cl)cc(Cl)cc12
inactive: [10] 100 % of control | [12] 100 % of control | [14] 97 % of control

C[C@]12CCCC[C@@H]1CC[C@@H]1[C@@H]2[C@@H](O)C[C@]2(C)[C@@H](O)CC[C@@H]12
inactive: [2] 93 % of control | [4] 101 % of control

CN(C)P(=O)(N(C)C)N(C)C
inactive: [11] 105 % of control | [13] 104 % of control | [15] 107 % of control
